Results on 121 molecules are retold here after patent US10703784B2, “Antigens and epitopes derived from Mycobacterium tuberculosis” (priority 2011, dated 2020).

The subject of the assay is PBMCs from LTBI donors (IFN-γ production). In kind it is cell-based, human. The following applies: for Resp. freq.: fraction of 28 LTBI donors responding to epitopes of the antigen; for Resp. freq. / Total SFC: ex vivo IFN-γ ELISPOT; for Total SFC: total spot-forming cells, LTBI donors.
[1] abbreviates: individual MTB epitope peptide, one value per responding LTBI donor.

Positions count from the first letter of the chain named. Values joined by “and” are separate entries in the source; they are usually repeats but may differ in a detail not shown here. Equal entries are not always repeated. Where two headings read alike, the source gives them in different places.

Take ALRILVYSDNVQTRE: the SFC under setting [1] came to 91.7.

Take TDNGAMIAAFAAQLV: the SFC under setting [1] is 203.3 and 30.0.

In the case of HTVLVATNFFGINTI, the SFC is recorded as 331.7.

On to AQIIHRITATARHPG, for which the SFC under setting [1] is 53.3.

On to RVIEDALRFYFESHE, for which, under setting [1], the SFC was 141.7.

Take MDYFIRMWNQAALAM: the SFC under setting [1] amounted to 46.7.

Consider AMNEAFVAMLGASAD, for which the SFC under setting [1] is given as 31.7.

With APVVILAHGFPELAY, the SFC under setting [1] turned out to be 23.3.

For AGYPAELAYFEVLHE, the SFC under setting [1] was determined as 23.3.

The molecule AGTLSTFFGVPLVLT returned an SFC under setting [1] of 21.7.

Under setting [1], NRASLMQLISTNVFG showed an SFC of 21.7.

Under setting [1], QAARGIRPLFDDITE registered an SFC of 21.7.

GFTIANHNAAAVGEI showed an SFC under setting [1] of 140.0.

In the case of SAAGSYAAAEAANAS, under setting [1], the SFC is 91.7 and 21.7.

Under setting [1], ESGASYAARDALAAA returned an SFC of 45.0.

Molecule EPGDIIIDGGNALYT gave an SFC under setting [1] of 35.0.

In the case of AHESLCFAGANLIPL, under setting [1], the SFC was 25.0.

Regarding “Rv1243c: MTB protein, novel CD4 T cell antigen; PE/PPE”, the Resp. freq. was 11% and the “Total SFC” value is 114 SFC.

EKMRVAGRIAAGALA registered an SFC under setting [1] of 20.0.

Under setting [1], QRPRMLYDYFHQLFA registered an SFC of 141.7.

Take FFGQNAPAIAAIEAA: under setting [1], the SFC was 20.0 and 21.7.

Molecule AAHAGEYGQMVTLRG returned an SFC under setting [1] of 23.3.

AGGFGGAGAGIANFL returned an SFC under setting [1] of 20.0.

As to GQQYQAMSAQAAAFH, the SFC under setting [1] is 50.0.

The molecule EQMLIDDGILLRKYW had an SFC under setting [1] of 178.3.

For IGSSIGAANAAAAGS, the SFC under setting [1] is 45.0.

Under setting [1], ADKNPLFLDEQLTRA displayed an SFC of 45.0.

As for “Rv0289: MTB protein, novel CD4 T cell antigen; Cell wall and cell processes, Island 1, Esx-3”, the Resp. freq. came to 29% and the “Total SFC” value was 2298 SFC.

For LPLLVPLRAIPLLGN, the SFC under setting [1] was 20.0.

Under setting [1], ARVFLDSVLPALGEE had an SFC of 38.3.

In turn, AAVIVGSGRIASLYV registered an SFC under setting [1] of 23.3.

Consider GSTINAANAAAALPT, for which, under setting [1], the SFC was 36.7 and 190.0.

For DPVKGADEVVAFAEE, the SFC under setting [1] is recorded as 813.3.

For MAKTIAYDEEARRGL, under setting [1], the SFC was 38.3 and 56.7.

As to ESALFFIGVLIVALL, under setting [1], the SFC was determined as 55.0.

For the molecule ADVLTMKAVRAATAL, the SFC under setting [1] is reported as 41.7.

In turn, ARFHQQFVQALTASV displayed an SFC under setting [1] of 35.0.

Under setting [1], AQEYQALSAQAAAFH returned an SFC of 41.7.

Under setting [1], ASVGSYAAAEAANAS had an SFC of 38.3.

Under setting [1], DDIPRVLAEAFHIAA showed an SFC of 31.7.

In the case of SLAVKTFEDLFAELG, the SFC under setting [1] is 23.3.

In turn, LYRPGLVHIYHALTW yielded an SFC under setting [1] of 28.3.

The molecule ALLWLADQVDAALEK gave an SFC under setting [1] of 48.3.

ALPRLLRRLVIMGGM displayed an SFC under setting [1] of 128.3.

With LVLVIDDEPQILRAL, the SFC under setting [1] was determined as 81.7.

Turning to AVITELIAMLRHHHI, under setting [1], the SFC was 40.0.

SEFNEVFFNDVFVPD: the SFC under setting [1] is on record as 41.7.

With “Rv2853: MTB protein, novel CD4 T cell antigen; PE/PPE”, the Resp. freq. is 11% and the “Total SFC” value is listed as 85 SFC.

With DPINEFFLANTGRPL, the SFC under setting [1] is 66.7.

The molecule HPQQFIYAGSLSALL displayed an SFC under setting [1] of 35.0.

The molecule KMAPVLRQIYDQMAE returned an SFC under setting [1] of 66.7.

Regarding EMLSMLRAMLAPESL, the SFC under setting [1] is recorded as 40.0.

AVSIGILLSLIAPLG gave an SFC under setting [1] of 55.0.

AVLLEKIVADEEEHI: the SFC under setting [1] is 26.7 and 28.3.

GAYAAAEAANVSAAQ showed an SFC under setting [1] of 176.7.

For the molecule LRLLVIALKHNVILN, the SFC under setting [1] is recorded as 31.7.

On to QLSAEYASTAAELSG, for which, under setting [1], the SFC is recorded as 26.7.

In the case of LTVDAGAYASAEAAN, the SFC under setting [1] was 31.7 and 58.3.

Turning to ALVEEYLRGLRQAAG, under setting [1], the SFC worked out at 30.0.

Regarding AQTSQFVMAMINYED, under setting [1], the SFC is recorded as 26.7.

In the case of QTLVYKGMLTTPQLK, under setting [1], the SFC is given as 40.0.

Under setting [1], DLDSYLVEITAEVLR showed an SFC of 23.3.

Consider GSAENFSVVEALADS, for which the SFC under setting [1] was 138.3 and 20.0.

Regarding AGAMGAYAAAEAANA, the SFC under setting [1] stood at 111.7.

The molecule ELADLIEFARTVNEE gave an SFC under setting [1] of 43.3.

Molecule APPNLIRAILRAPVD had an SFC under setting [1] of 30.0.

FLMSVGALIIGWLLQ: the SFC under setting [1] is given as 26.7.

Turning to RARQGFRDIEFHPTI, under setting [1], the SFC is 45.0 and 28.3.

For the molecule TVAWTMLGVALSAYE, under setting [1], the SFC is 50.0 and 25.0.

With ETLYWLAQPGIRESI, the SFC under setting [1] was 31.7.

Consider DMTKIVGLRARAKAA, for which, under setting [1], the SFC turned out to be 35.0.

The molecule AAAQASAAAAAYEAA had an SFC under setting [1] of 20.0.

“Rv3022c: MTB protein, novel CD4 T cell antigen; PE/PPE, Island 2”: the Resp. freq. amounted to 18% and the “Total SFC” value was found to be 109 SFC.

Take QAVLTATNFFGINTI: the SFC under setting [1] is on record as 341.7.

Under setting [1], ITPDEGAYAFEALLR displayed an SFC of 28.3.

Under setting [1], DSTVITDGDIVNIDV came in with an SFC of 31.7.

On to ERYVGLYLPFLDMSF, for which the SFC under setting [1] amounted to 23.3.

In the case of AAFDYADGAAEDELS, under setting [1], the SFC is 21.7.

Regarding AGISSLIIDPNPMFV, the SFC under setting [1] was 88.3.

In turn, CSEDLLYLSDLDFDV showed an SFC under setting [1] of 33.3.

RVLLAGWEQFDEPVD showed an SFC under setting [1] of 101.7.

Molecule IGLVLIAVLVFVPRV had an SFC under setting [1] of 38.3.

Under setting [1], ALEMFYDDDADLSII had an SFC of 25.0.

On to AHLIHFAAANLRNPG, for which the SFC under setting [1] worked out at 30.0.

The molecule EHFGHERYDAFFSLA registered an SFC under setting [1] of 66.7.

DTEVYLDAASLSPFV returned an SFC under setting [1] of 266.7.

Regarding DTQSMIVTDHRYVPA, the SFC under setting [1] is reported as 33.3.

LVAQEAAAAGTPLVT displayed an SFC under setting [1] of 23.3.

Under setting [1], TGIFGLVLVICVVLI yielded an SFC of 35.0.

On to AVLEDPYILLVSSKV, for which the SFC under setting [1] was 21.7.

Under setting [1], QAFRSRFGENFFYIL had an SFC of 31.7.

Under setting [1], VDVEDGRVIVDEYQR had an SFC of 20.0.

With EVNIKILIDSLVSAG, the SFC under setting [1] amounted to 201.7.

As to YLAWLSTAAAQAEQA, the SFC under setting [1] is 145.0 and 100.0.

Under setting [1], APWQQVLRNLGIDIG returned an SFC of 96.7.

Under setting [1], EGGNQIVQYLVAQKI returned an SFC of 25.0.

Regarding CRGYDVVILDRYVAS, under setting [1], the SFC is recorded as 21.7.

In turn, CLGSHLARLELTLLV came in with an SFC under setting [1] of 91.7.

Regarding PPEVNSARVFAGAGS, the SFC under setting [1] is 38.3 and 31.7.

Under setting [1], AVVVLKRLPDALADG registered an SFC of 25.0.

Take CRRYEVLLIFDEIAT: the SFC under setting [1] amounted to 65.0.

Regarding FSLVNFFDAQVGPLS, the SFC under setting [1] came out at 43.3.

As for LLSTRGYITAEKIRS, the SFC under setting [1] was determined as 35.0.

AELFRLQTEFVKLQE came in with an SFC under setting [1] of 85.0.

For the molecule LDWFCLFSSAAALTG, under setting [1], the SFC was found to be 23.3.

On to DVTIRFRRFFSRLQR, for which, under setting [1], the SFC is 50.0.

As for ENFFMFIAEEVREYL, the SFC under setting [1] was 23.3 and 65.0.

Consider AVDAVFVGSCTNGRI, for which, under setting [1], the SFC is reported as 46.7.

For the molecule SILDMRQLFDGIDLS, under setting [1], the SFC is given as 26.7.

As to FRVVISSRFGDIFRG, the SFC under setting [1] was 20.0.

The molecule DVIHAFWVPEFLFKR displayed an SFC under setting [1] of 158.3.

Molecule NPFPFLRQIIANQQV came in with an SFC under setting [1] of 26.7.

Turning to ESVFAATVAELESLI, under setting [1], the SFC turned out to be 36.7.

As for EHIHRPNTNNVGPII, under setting [1], the SFC turned out to be 65.0.

Under setting [1], SQVIEAVNLFRANVI yielded an SFC of 33.3.

For EIYLNTFRHLYGLDC, under setting [1], the SFC was 25.0.

Under setting [1], ASMSMAAAASPYVGW showed an SFC of 78.3.

B1: Rv1788: MTB protein, novel CD4 T cell antigen; PE/PPE (protein, listed as Mycobacterium tuberculosis)
chain: MSFVTTQPEALAAAAGSLQGIGSALNAQNAAAATPTTGVVPAAADEVSALTAAQFAAHAQIYQAVSAQAAAIHEMFVNTLQMSSGSYAATEAANAAAAG
In the case of B1, the Resp. freq. is on record as 25% and the “Total SFC” value worked out at 347 SFC.

B2: Rv1791: MTB protein, novel CD4 T cell antigen; PE/PPE (protein, listed as Mycobacterium tuberculosis)
chain: B1 chain with G16A, S17N, S23T, A24T, L25M, T34A, I61M, A64T, Q81V, M82A
Consider B2, for which the Resp. freq. turned out to be 25% and the “Total SFC” value came to 355 SFC.

B3: Rv3615c: MTB antigen functionally linked to Esx-1 (Millington et al., 2011); single antigen, not part of an antigenic island (protein, UniProt P9WJD7 2-103, looked up)
ESX-1 secretion-associated …: TENLTVQPERLGVLASHHDNAAVDASSGVEAAAGLGESVAITHGPYCSQFNDTLNVYLTAHNALGSSLHTAGVDLAKSLRIAAKIYSEADEAWRKAIDGLFT
Take B3: the “recognition by LTBI donors” value (result in words) is reported as “prevalently recognized”.

B4: Rv3330: MTB protein, novel CD4 T cell antigen; Cell wall and cell processes (protein, listed as Mycobacterium tuberculosis)
chain: MAFLRSVSCLAAAVFAVGTGIGLPTAAGEPNAAPAACPYKVSTPPAVDSSEVPAAGEPPLPLVVPPTPVGGNALGGCGIITAPGSAPAPGDVSAEAWLVADLDSGAVIAARDPHGRHRPASVIKVLVAMASINTLTLNKSVAGTADDAAVEGTKVGVNTGGTYTVNQLLHGLLMHSGNDAAYALARQLGGMPAALEKINLLAAKLGGRDTRVATPSGLDGPGMSTSAYDIGLFYRYAWQNPVFADIVATRTFDFPGHGDHPGYELENDNQLLYNYPGALGGKTGYTDDAGQTFVGAANRDGRRLMTVLLHGTRQPIPPWEQAAHLLDYGFNTPAGTQIGTLIEPDPSLMSTDRNPADRQRVDPQAAARISAADALPVRVGVAVIGALIVFGLIMVARAMNRRPQH
As for B4, the Resp. freq. is recorded as 29% and the “Total SFC” value is on record as 1595 SFC.
